Measured values taken from patent US20250188082A1, “Use of Hypoxanthine Compound In Preparation of Drug For Treating Pulmonary Fibrosis” (Sichuan Yiasuo Pharmaceutical Technology Co., Ltd., priority 2022, published 2025).

Tested on: bleomycin-induced pulmonary fibrosis model
Test: Comparison with comparative drugs: bleomycin-induced model, hydroxyproline and TGF-β
Assay type: in vivo, C57BL/6 mice
Details: 120 mg/kg/d intragastric, twice every day, 14 days, from two weeks after model; Day 15

SMILES: CC(C)n1cnc2c(=O)[nH]cnc21 [Compound E-1]
- Hydroxyproline in bronchoalveolar lavage fluids: 1.14 ± 0.16 µg/mg
- Hydroxyproline in lung tissues: 2.18 ± 0.32 µg/mg
- TGF-β in bronchoalveolar lavage fluids: 6.51 ± 0.24 µg/L
- TGF-β in lung tissues: 63.95 ± 2.19 µg/L

SMILES: CC(C)n1cnc2[nH]cnc2c1=O [Compound E-2]
- Hydroxyproline in bronchoalveolar lavage fluids: 1.16 ± 0.28 µg/mg
- Hydroxyproline in lung tissues: 1.93 ± 0.24 µg/mg
- TGF-β in bronchoalveolar lavage fluids: 6.21 ± 0.24 µg/L
- TGF-β in lung tissues: 66.56 ± 1.95 µg/L

SMILES: CC(C)n1cnc2c(ncn2C(C)C)c1=O [Compound E-3]
- Hydroxyproline in bronchoalveolar lavage fluids: 1.03 ± 0.29 µg/mg
- Hydroxyproline in lung tissues: 2.15 ± 0.23 µg/mg
- TGF-β in bronchoalveolar lavage fluids: 6.35 ± 0.28 µg/L
- TGF-β in lung tissues: 62.54 ± 1.28 µg/L

SMILES: CC(C)n1cnc2c(=S)[nH]cnc21 [Compound E-4]
- Hydroxyproline in bronchoalveolar lavage fluids: 1.14 ± 0.18 µg/mg
- Hydroxyproline in lung tissues: 1.98 ± 0.44 µg/mg
- TGF-β in bronchoalveolar lavage fluids: 6.84 ± 0.95 µg/L
- TGF-β in lung tissues: 63.58 ± 2.95 µg/L

SMILES: CC(C)n1cnc2[nH]cnc2c1=S [Compound E-5]
- Hydroxyproline in bronchoalveolar lavage fluids: 1.17 ± 0.16 µg/mg
- Hydroxyproline in lung tissues: 2.15 ± 0.35 µg/mg
- TGF-β in bronchoalveolar lavage fluids: 6.51 ± 0.86 µg/L
- TGF-β in lung tissues: 65.82 ± 3.54 µg/L

SMILES: CC(C)n1cnc2c(=O)n(C)cnc21 [Compound E-6]
- Hydroxyproline in bronchoalveolar lavage fluids: 1.18 ± 0.15 µg/mg
- Hydroxyproline in lung tissues: 2.35 ± 0.24 µg/mg
- TGF-β in bronchoalveolar lavage fluids: 6.14 ± 0.85 µg/L
- TGF-β in lung tissues: 63.56 ± 6.54 µg/L

SMILES: CC(C)n1cnc2c(=N)[nH]cnc21 [Compound E-7]
- Hydroxyproline in bronchoalveolar lavage fluids: 1.15 ± 0.18 µg/mg
- Hydroxyproline in lung tissues: 1.99 ± 0.25 µg/mg
- TGF-β in bronchoalveolar lavage fluids: 6.38 ± 0.95 µg/L
- TGF-β in lung tissues: 68.25 ± 2.58 µg/L

SMILES: CC(C)n1cnc2[nH]cnc2c1=N [Compound E-8]
- Hydroxyproline in bronchoalveolar lavage fluids: 1.06 ± 0.19 µg/mg
- Hydroxyproline in lung tissues: 2.03 ± 0.51 µg/mg
- TGF-β in bronchoalveolar lavage fluids: 6.51 ± 0.58 µg/L
- TGF-β in lung tissues: 68.54 ± 2.25 µg/L

SMILES: CC(C)n1cnc2c(ncn2C(C)C)c1=S [Hypoxanthine analogue D]
- Hydroxyproline in bronchoalveolar lavage fluids: 1.94 ± 0.13 µg/mg
- Hydroxyproline in lung tissues: 2.15 ± 0.35 µg/mg
- TGF-β in bronchoalveolar lavage fluids: 6.42 ± 1.02 µg/L
- TGF-β in lung tissues: 93.36 ± 8.51 µg/L
